The target in one test is T1, TRα (Homo sapiens, UniProt P10827).
T1 construct: expressed in transfected cells; host or cells: HEK293
T1 sequence (P10827 1-410 isoform P10827-2): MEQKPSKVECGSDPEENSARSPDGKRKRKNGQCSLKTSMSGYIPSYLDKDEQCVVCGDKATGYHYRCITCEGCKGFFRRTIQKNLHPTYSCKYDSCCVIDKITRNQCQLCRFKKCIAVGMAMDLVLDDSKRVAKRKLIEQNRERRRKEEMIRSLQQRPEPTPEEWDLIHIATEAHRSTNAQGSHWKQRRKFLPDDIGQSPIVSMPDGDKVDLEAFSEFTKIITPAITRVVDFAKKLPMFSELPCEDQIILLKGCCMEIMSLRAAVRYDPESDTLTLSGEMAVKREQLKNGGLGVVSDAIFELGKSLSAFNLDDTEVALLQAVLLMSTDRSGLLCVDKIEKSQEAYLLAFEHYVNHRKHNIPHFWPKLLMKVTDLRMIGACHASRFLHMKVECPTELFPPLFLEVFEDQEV
Briefly: TR reporter-gene assay (Gal4 DBD hybrid, luciferase), TRα. The test is classed as cell-based. The following applies: HEK293-derived reporter cells, 24 hr treatment; read-out: TRα EC50. On the procedure: (§1) Compounds were tested for thyroid-hormone receptor activity using TR reporter-gene assays. Reporter cells used in the assays express a TR-receptor hybrid (either TRα or TRβ) in which the native N-terminal DNA binding domain (DBD) has been replaced with that of the yeast Gal4 DBD. The reporter gene, firefly luciferase, is functionally linked to the Gal4 upstream activation sequence (UAS). Both cell lines were derived from human embryonic kidney (HEK293).
(§2) Step 1: A suspension of reporter cells was prepared in cell recovery medium containing 10% charcoal-stripped FBS, and dispensed into assay plates. The plates were pre-incubated for 6 hours in a cell culture incubator (37° C./5% CO2/85% humidity).
(§3) These intermediate stocks were subsequently diluted directly into compound screening medium containing 10% charcoal-stripped FBS to generate “2×-concentration” treatment media (containing 0.2, 0.4 or 0.8% DMSO).
(§4) Step 3: At the end of the pre-incubation period, culture media were discarded from the assay plates, and all wells received 100 μl of compound screening medium. 100 μl of each of the previously prepared “2×-concentration” treatment media were dispensed into duplicate assay wells, thereby achieving the desired final treatment concentrations. The final concentration of DMSO in all assay wells was 0.1, 0.2 or 0.4%. Assay plates were incubated for 24 hr in a cell culture incubator (37° C./5% CO2/85% humidity).
(§5) Step 4: At the 24 h assay endpoint, treatment media were discarded and 100 µl/well of luciferase detection reagent was added. Relative luminometer units (RLUs) were quantified from each assay well.

The target of a further test is T2, TRβ (Homo sapiens, UniProt P10828).
T2 construct: expressed in transfected cells; host or cells: HEK293
T2 sequence (P10828 217-461 limits assumed): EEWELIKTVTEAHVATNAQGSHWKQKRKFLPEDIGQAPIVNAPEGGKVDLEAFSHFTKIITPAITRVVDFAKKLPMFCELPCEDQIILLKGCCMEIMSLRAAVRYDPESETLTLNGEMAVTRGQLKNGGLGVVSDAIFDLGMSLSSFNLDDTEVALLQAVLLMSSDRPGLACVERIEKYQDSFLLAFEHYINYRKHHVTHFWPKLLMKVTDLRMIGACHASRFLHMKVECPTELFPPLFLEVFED
Description: TR reporter-gene assay (Gal4 DBD hybrid, luciferase), TRβ. It is filed as cell-based. The following applies: for EC50: HEK293-derived reporter cells, 24 hr treatment, read-out: TRβ EC50; for T3-SI (selectivity index, EC50 (TRα)/EC50 (TRβ)): class symbols. The method, then:
as §1, §2, §3, §4, §5

Some results are limits rather than exact numbers.

As to `CC(C)c1c(O)ccc(Cc2c(Cl)cc(/C=C/C(=O)O)cc2Cl)c1F` [Compound 88, (E)-3-(3,5-dichloro-4-(2-fluoro-4-hydroxy-3-isopropylbenzyl)phenyl)acrylic acid], the EC50 (usually the midpoint of the concentration-response curve) on TRα was less than 10 nM. For the same molecule, on TRβ, the EC50 is less than 10 nM and the “T3-SI (selectivity index, EC50 (TRα)/EC50 (TRβ))” value is “+ (T3-SI ≤ 3×)”.

Consider `Cc1cc(CS(=O)(=O)CC(=O)O)cc(Cl)c1Cc1ccc(O)c(C(C)C)c1` [Compound 245, 2-((3-chloro-4-(4-hydroxy-3-isopropylbenzyl)-5-methylbenzyl)sulfonyl)acetic acid], for which, on TRα, the EC50 is greater than 1000 nM. In addition, on TRβ, the half-maximal effective concentration (EC50) is greater than 1000 nM and the “T3-SI (selectivity index, EC50 (TRα)/EC50 (TRβ))” value is “++ (3× < T3-SI ≤ 30×)”.

Turning to `CC(C)c1cc(Cc2c(Cl)cc(/C=C\C(=O)O)cc2Cl)ccc1O` [Compound 100, (Z)-3-(3,5-dichloro-4-(4-hydroxy-3-isopropylbenzyl)phenyl)acrylic acid], at TRα, the EC50 fell in the range of 100 to 1000 nM. Further, at TRβ, the EC50 is greater than 1000 nM and the “T3-SI (selectivity index, EC50 (TRα)/EC50 (TRβ))” value was “+ (T3-SI ≤ 3×)”.

As for `CC(Oc1cc(Cl)c(Cc2ccc(O)c(C(C)C)c2F)c(Cl)c1)C(=O)O` (stereo not shown) [Compound 58, 2-(3,5-dichloro-4-(2-fluoro-4-hydroxy-3-isopropylbenzyl)phenoxy)propanoic acid], on TRα, the EC50 lay in the range of 100 to 1000 nM. Besides, at TRβ, the EC50 fell in the range of 10 to 100 nM and the “T3-SI (selectivity index, EC50 (TRα)/EC50 (TRβ))” value is “++ (3× < T3-SI ≤ 30×)”.

As for `CC(C)c1cc(Cc2c(Cl)cc(OCCCC(=O)O)cc2Cl)ccc1O` [Compound 24, 4-(3,5-dichloro-4-(4-hydroxy-3-isopropylbenzyl)phenoxy)butanoic acid], at TRα, the 50% effective concentration (EC50) was in the range of 100 to 1000 nM. Moreover, on TRβ, the EC50 was 100 to 1000 nM and the “T3-SI (selectivity index, EC50 (TRα)/EC50 (TRβ))” value was “+ (T3-SI ≤ 3×)”.

As to `Cc1c(F)c(NCC(=O)O)cc(Cl)c1Cc1ccc(O)c(C(C)C)c1` [Compound 223, (5-chloro-2-fluoro-4-(4-hydroxy-3-isopropylbenzyl)-3-methylphenyl)glycine], the EC50 at TRα lay in the range of 10 to 100 nM. Moreover, on TRβ, the EC50 was in the range of 10 to 100 nM and the “T3-SI (selectivity index, EC50 (TRα)/EC50 (TRβ))” value is “++ (3× < T3-SI ≤ 30×)”.

Consider `CC(C)c1c(O)ccc(Cc2c(Cl)cc(CCC(=O)O)c(F)c2Cl)c1F` [Compound 71, 3-(3,5-dichloro-2-fluoro-4-(2-fluoro-4-hydroxy-3-isopropylbenzyl)phenyl)propanoic acid], for which the EC50 at TRα and at TRβ was 10 to 100 nM each time. On TRβ, the “T3-SI (selectivity index, EC50 (TRα)/EC50 (TRβ))” value is “++ (3× < T3-SI ≤ 30×)”.

On to `C/C(=C\c1cc(Cl)c(Cc2ccc(O)c(C(C)C)c2F)c(Cl)c1)C(=O)O` [Compound 205, (E)-3-(3,5-dichloro-4-(2-fluoro-4-hydroxy-3-isopropylbenzyl)phenyl)-2-methylacrylic acid], for which the 50% effective concentration (EC50) at TRα was less than 10 nM. On TRβ, the EC50 was less than 10 nM and the “T3-SI (selectivity index, EC50 (TRα)/EC50 (TRβ))” value was “++ (3× < T3-SI ≤ 30×)”.

Regarding `CC(C)c1cc(Cc2c(Cl)cc(CNCC(=O)O)c(F)c2Cl)ccc1O` [Compound 152, (3,5-dichloro-2-fluoro-4-(4-hydroxy-3-isopropylbenzyl)benzyl)glycine], the EC50 on TRα was in the range of 100 to 1000 nM. On TRβ, the EC50 was in the range of 100 to 1000 nM and the “T3-SI (selectivity index, EC50 (TRα)/EC50 (TRβ))” value was “++ (3× < T3-SI ≤ 30×)”.

`Cc1cc(C[S+]([O-])CC(=O)O)cc(Cl)c1Cc1ccc(O)c(C(C)C)c1` (stereo not shown) [Compound 246, 2-((3-chloro-4-(4-hydroxy-3-isopropylbenzyl)-5-methylbenzyl)sulfinyl)acetic acid]: the EC50 at TRα was greater than 1000 nM. In addition, at TRβ, the 50% effective concentration (EC50) is greater than 1000 nM and the “T3-SI (selectivity index, EC50 (TRα)/EC50 (TRβ))” value is “++ (3× < T3-SI ≤ 30×)”.

Regarding `Cc1cc(/C=C/C(=O)O)cc(Cl)c1Cc1ccc(O)c(C(C)C)c1F` [Compound 250, (E)-3-(3-chloro-4-(2-fluoro-4-hydroxy-3-isopropylbenzyl)-5-methylphenyl)acrylic acid], the EC50 at TRα was in the range of 10 to 100 nM. For the same molecule, on TRβ, the concentration giving a half-maximal response (EC50) was in the range of 10 to 100 nM and the “T3-SI (selectivity index, EC50 (TRα)/EC50 (TRβ))” value is “+ (T3-SI ≤ 3×)”.

`CC(C)c1cc(Cc2c(Cl)cc(OC(F)(F)C(=O)O)cc2Cl)ccc1O` [Compound 82, 2-(3,5-dichloro-4-(4-hydroxy-3-isopropylbenzyl)phenoxy)-2,2-difluoroacetic acid]: the concentration giving a half-maximal response (EC50) on TRα is greater than 1000 nM. At TRβ, the concentration for a half-maximal effect (EC50) lay in the range of 100 to 1000 nM and the “T3-SI (selectivity index, EC50 (TRα)/EC50 (TRβ))” value is “++ (3× < T3-SI ≤ 30×)”.

As for `O=C(O)Cc1cc(Cl)c(Cc2ccc(O)c(C(=O)N3CCCCC3)c2)c(Cl)c1` [Compound 137, 2-(3,5-dichloro-4-(4-hydroxy-3-(piperidine-1-carbonyl)benzyl)phenyl)acetic acid], the EC50 at TRβ is greater than 1000 nM.

`O=C(O)Cc1cc(Cl)c(Cc2ccc(O)c(CN3CCCC3=O)c2)c(Cl)c1` [Compound 138, 2-(3,5-dichloro-4-(4-hydroxy-3-((2-oxopyrrolidin-1-yl)methyl)benzyl)phenyl)acetic acid]: at TRα, the EC50 is greater than 1000 nM.

`CC(C)c1cc(Cc2c(Cl)cc(COCC(=O)O)cc2Cl)ccc1O` [Compound 28, 2-((3,5-dichloro-4-(4-hydroxy-3-isopropylbenzyl)benzyl)oxy)acetic acid]: the EC50 at TRα and on TRβ was 10 to 100 nM in each case. Moreover, the “T3-SI (selectivity index, EC50 (TRα)/EC50 (TRβ))” value at TRβ is “++ (3× < T3-SI ≤ 30×)”.

Consider `CC(C)c1c(O)ccc(Cc2c(Cl)cc(SCC(=O)O)cc2Cl)c1F` [Compound 203, 2-((3,5-dichloro-4-(2-fluoro-4-hydroxy-3-isopropylbenzyl)phenyl)thio)acetic acid], for which the EC50 on TRα and at TRβ was 10 to 100 nM in each case. In addition, the “T3-SI (selectivity index, EC50 (TRα)/EC50 (TRβ))” value at TRβ was “++ (3× < T3-SI ≤ 30×)”.

Take `Cc1cc(SCC(=O)O)cc(Cl)c1Cc1ccc(O)c(C(C)C)c1` [Compound 123, 2-((3-chloro-4-(4-hydroxy-3-isopropylbenzyl)-5-methylphenyl)thio)acetic acid]: the concentration for a half-maximal effect (EC50) on TRα lay within 100 to 1000 nM. Moreover, on TRβ, the 50% effective concentration (EC50) fell in the range of 100 to 1000 nM and the “T3-SI (selectivity index, EC50 (TRα)/EC50 (TRβ))” value was “++ (3× < T3-SI ≤ 30×)”.

For the molecule `CC(C)c1c(O)ccc(Cc2c(Cl)cc(CSCC(=O)O)cc2Cl)c1F` [Compound 200, 2-((3,5-dichloro-4-(2-fluoro-4-hydroxy-3-isopropylbenzyl)benzyl)thio)acetic acid], the EC50 at TRα and at TRβ was less than 10 nM in each case. The “T3-SI (selectivity index, EC50 (TRα)/EC50 (TRβ))” value at TRβ is “++ (3× < T3-SI ≤ 30×)”.

In the case of `CC(C)c1cc(Cc2c(Cl)cc(CC(=O)O)cc2Cl)ccc1O` [Compound 6, 2-(3,5-dichloro-4-(4-hydroxy-3-isopropylbenzyl)phenyl)acetic acid], the EC50 at TRα was in the range of 100 to 1000 nM. For the same molecule, at TRβ, the EC50 lay within 100 to 1000 nM and the “T3-SI (selectivity index, EC50 (TRα)/EC50 (TRβ))” value is “++ (3× < T3-SI ≤ 30×)”.

On to `O=C(O)CNc1cc(Cl)c(Cc2ccc(O)c(-c3cc(OC(F)F)ccc3F)c2F)c(Cl)c1` [Compound 139, (3,5-dichloro-4-((5′-(difluoromethoxy)-2,2′-difluoro-6-hydroxy-[1,1′-biphenyl]-3-yl)methyl)phenyl)glycine], for which the concentration for a half-maximal effect (EC50) on TRα lay within 10 to 100 nM.

Consider `CC(C)c1c(O)ccc(Cc2c(Cl)cc(N(C)CC(=O)O)cc2Cl)c1F` [Compound 140, N-(3,5-dichloro-4-(2-fluoro-4-hydroxy-3-isopropylbenzyl)phenyl)-N-methylglycine], for which the 50% effective concentration (EC50) at TRα was greater than 1000 nM.

`CC(C)c1c(O)ccc(Cc2c(Cl)cc(NC(=O)C(=O)O)cc2Cl)c1F` [Compound 63, 2-((3,5-dichloro-4-(2-fluoro-4-hydroxy-3-isopropylbenzyl)phenyl)amino)-2-oxoacetic acid]: the “T3-SI (selectivity index, EC50 (TRα)/EC50 (TRβ))” value on TRβ is “++ (3× < T3-SI ≤ 30×)”.

On to `CC(=O)NOCc1cc(Cl)c(Cc2ccc(O)c(C(C)C)c2F)c(Cl)c1` [Compound 211, N-((3,5-dichloro-4-(2-fluoro-4-hydroxy-3-isopropylbenzyl)benzyl)oxy)acetamide], for which the EC50 at TRα is 100 to 1000 nM.

For the molecule `CC(C)c1cc(Cc2c(Cl)cc(C(CC(=O)O)C(=O)O)cc2Cl)ccc1O` (stereo not shown) [Compound 142, 2-(3,5-dichloro-4-(4-hydroxy-3-isopropylbenzyl)phenyl)succinic acid], the EC50 on TRα is greater than 1000 nM.

The values above are taken from US12528761B2, “Thyromimetics” (Autobahn Therapeutics, Inc., priority 2020, dated 2026).
